In this test the test system is IRF3. Description: IRF3 activation assay in THP-1 Dual cells. Particulars: Homo sapiens, read-out: THP1 IRF3 EC50. Type of test: cell-based. How it is done: THP-1 Dual Cells (Invivogen) were maintained in RPMI1640 medium with addition of 10% FBS, 100 μg/ml zeocin, 10 μg/ml blasticidin. Cells were added in a 96-well flat bottom assay plate at 100,000 per well in 100 μL complete RPMI medium. Test compounds were prepared by serial dilution in complete RPMI medium and 100 μL test compounds were transferred to each corresponding well. The assay plate was incubated at 37° C., 5% CO2 for 24 hours. After the overnight incubation, 20 μL of the culture supernatants were collected, followed by addition of 180 μL of QUANTI-Blue (Invivogen) to assess IRF3 activity. The amount of IRF3 activation was assessed by reading the absorbance at 620-655 nm with a microplate reader 2 hours later. The culture supernatant from the untreated THP-1 cells was used as the negative control. EC50 determination was performed by fitting the curve of percent control activity versus the log of the compound concentration using the GraphPad Prism 6.0 software.

SMILES strings stand for the structures. Read-outs that look alike come from different tables or passages of the source.

In general, EC50 refers to the concentration giving half of the maximal effect. Turning to `CCn1nc(C)cc1C(=O)Nc1nc2cc(C(N)=O)cc(C)c2n1C/C=C/Cn1c2ccc(C(N)=O)cc2c2cnc(-c3cc(C)nn3CC)nc21` [Example S1, (E)-9-(4-(5-carbamoyl-2-(1-ethyl-3-methyl-1H-pyrazole-5-carboxamido)-7-methyl-1H-benzo[d]imidazol-1-yl)but-2-enyl)-2-(1-ethyl-3-methyl-1H-pyrazol-5-yl)-9H-pyrimido[4,5-b]indole-6-carboxamide], the EC50 was 500 to 1000 nM (THP-1, Table 4A); less than 1000 nM (THP-1, Table 4B); 50 to 200 nM (THP-1, Table 4C).

Regarding `CCn1nc(C)cc1C(=O)Nc1nc2cc(C(N)=O)cc(C)c2n1C/C=C/Cn1c2ccccc2c2cnc(-c3cc(C)nn3CC)nc21` [Example S2, (E)-1-(4-(2-(1-ethyl-3-methyl-1H-pyrazol-5-yl)-9H-pyrimido[4,5-b]indol-9-yl)but-2-enyl)-2-(1-ethyl-3-methyl-1H-pyrazole-5-carboxamido)-7-methyl-1H-benzo[d]imidazole-5-carboxamide], the EC50 (THP-1, Table 4A) is 100 to 500 nM; the EC50 (THP-1, Table 4B) was less than 1000 nM; the concentration for a half-maximal effect (EC50) (THP-1, Table 4C) was in the range of 200 to 500 nM.

Take `CCn1nc(C)cc1C(=O)Nc1nc2cc(C(N)=O)cc(C)c2n1C/C=C/Cn1c2ccc(C(N)=O)cc2c2cnc(-c3cc(C)nn3C)nc21` [Example S3, (E)-9-(4-(5-carbamoyl-2-(1-ethyl-3-methyl-1H-pyrazole-5-carboxamido)-7-methyl-1H-benzo[d]imidazol-1-yl)but-2-enyl)-2-(1,3-dimethyl-1H-pyrazol-5-yl)-9H-pyrimido[4,5-b]indole-6-carboxamide]: the EC50 reads like this: (THP-1, Table 4A) 100 to 500 nM; (THP-1, Table 4B) less than 1000 nM.

Regarding `CCn1nc(C)cc1C(=O)Nc1nc2cc(C(N)=O)cc(OC)c2n1C/C=C/Cn1c2ccc(C(N)=O)cc2c2cnc(-c3cc(C)nn3CC)nc21` [Example S4, (E)-9-(4-(5-carbamoyl-2-(1-ethyl-3-methyl-1H-pyrazole-5-carboxamido)-7-methoxy-1H-benzo[d]imidazol-1-yl)but-2-enyl)-2-(1-ethyl-3-methyl-1H-pyrazol-5-yl)-9H-pyrimido[4,5-d]indole-6-carboxamide], the EC50 was 500 to 1000 nM (THP-1, Table 4A); less than 1000 nM (THP-1, Table 4B); 500 to 1000 nM (THP-1, Table 4C).

For the compound `CCn1nc(C)cc1C(=O)Nc1nc2cc(C(N)=O)cc(C)c2n1C/C=C/Cn1c2ccc(C(N)=O)cc2c2ccc(-c3cc(C)nn3CC)nc21` [Example S5, (E)-9-(4-(5-carbamoyl-2-(1-ethyl-3-methyl-1H-pyrazole-5-carboxamido)-7-methyl-1H-benzo[d]imidazol-1-yl)but-2-en-1-yl)-2-(1-ethyl-3-methyl-1H-pyrazol-5-yl)-9H-pyrido[2,3-b]indole-6-carboxamide], the EC50 runs as follows: (THP-1, Table 4A) not above 100 nM; (THP-1, Table 4B) less than 1000 nM; (THP-1, Table 4C) 50 to 200 nM.

In the case of `CCCn1nc(C)cc1-c1ncc2c3cc(C(N)=O)ccc3n(C/C=C/Cn3c(NC(=O)c4cc(C)nn4CC)nc4cc(C(N)=O)cc(C)c43)c2n1` [Example S6, (E)-9-(4-(5-carbamoyl-2-(1-ethyl-3-methyl-1H-pyrazole-5-carboxamido)-7-methyl-1H-benzo[d]imidazol-1-yl)but-2-enyl)-2-(3-methyl-1-propyl-1H-pyrazol-5-yl)-9 H-pyrimido[4,5-b]indole-6-carboxamide], the EC50 is, setting by setting: (THP-1, Table 4A) not above 100 nM; (THP-1, Table 4B) less than 200 nM; (THP-1, Table 4C) not above 50 nM.

Take `CCn1nc(C)cc1C(=O)Nc1nc2cc(C(N)=O)cc(C)c2n1C/C=C/Cn1c2ccc(C(N)=O)cc2c2cnc(-c3ccnn3CC)nc21` [Example S7, (E)-9-(4-(5-carbamoyl-2-(1-ethyl-3-methyl-1H-pyrazole-5-carboxamido)-7-methyl-1H-benzo[d]imidazol-1-yl)but-2-enyl)-2-(1-ethyl-1H-pyrazol-5-yl)-9H-pyrimido[4,5-b]indole-6-carboxamide]: the EC50 (THP-1, Table 4A) was in the range of 100 to 500 nM; the concentration for a half-maximal effect (EC50) (THP-1, Table 4B) is less than 1000 nM; the EC50 (THP-1, Table 4C) was in the range of 200 to 500 nM.

With `CCc1nn(C)cc1-c1ncc2c3cc(C(N)=O)ccc3n(C/C=C/Cn3c(NC(=O)c4cc(C)nn4CC)nc4cc(C(N)=O)cc(C)c43)c2n1` [Example S8, (E)-9-(4-(5-carbamoyl-2-(1-ethyl-3-methyl-1H-pyrazole-5-carboxamido)-7-methyl-1H-benzo[d]imidazol-1-yl)but-2-enyl)-2-(3-ethyl-1-methyl-1H-pyrazol-4-yl)-9H-pyrimido[4,5-b]indole-6-carboxamide], the EC50 is 500 to 1000 nM (THP-1, Table 4A); less than 1000 nM (THP-1, Table 4B); 500 to 1000 nM (THP-1, Table 4C).

As to `CCn1nc(C)cc1C(=O)Nc1nc2cc(C(N)=O)cc(C)c2n1C/C=C/Cn1c2ccc(C(N)=O)cc2c2cnc(-c3cc(C(F)(F)F)nn3CC)nc21` [Example S9, (E)-9-(4-(5-carbamoyl-2-(1-ethyl-3-methyl-1H-pyrazole-5-carboxamido)-7-methyl-1H-benzo[d]imidazol-1-yl)but-2-enyl)-2-(1-ethyl-3-(trifluoromethyl)-1H-pyrazol-5-yl)-9H-pyrimido[4,5-b]indole-6-carboxamide], the EC50 was 100 to 500 nM (THP-1, Table 4A); less than 1000 nM (THP-1, Table 4B); 200 to 500 nM (THP-1, Table 4C).

With `CCn1nc(C)cc1C(=O)Nc1nc2cc(C(N)=O)cc(C)c2n1C/C=C/Cn1c2nc(-c3cc(C)nn3CC)ncc2c2cc(C(N)=O)cc(OC)c21` [Example S10, (E)-9-(4-(5-carbamoyl-2-(1-ethyl-3-methyl-1H-pyrazole-5-carboxamido)-7-methyl-1H-benzo[d]imidazol-1-yl)but-2-enyl)-2-(1-ethyl-3-methyl-1H-pyrazol-5-yl)-8-methoxy-9H-pyrimido[4,5-b]indole-6-carboxamide], the EC50 (THP-1, Table 4A) is not above 100 nM; the EC50 (THP-1, Table 4B) was less than 200 nM; the EC50 (THP-1, Table 4C) was not above 50 nM.

As for `CCn1nc(C)cc1C(=O)Nc1nc2cc(C(N)=O)cc(C)c2n1C/C=C/Cn1c2nc(-c3cc(C)nn3CC)ncc2c2cc(C(N)=O)cc(OCCCN3CCOCC3)c21` [Example S11, (E)-9-(4-(5-carbamoyl-2-(1-ethyl-3-methyl-1H-pyrazole-5-carboxamido)-7-methyl-1H-benzo[d]imidazol-1-yl)but-2-enyl)-2-(1-ethyl-3-methyl-1H-pyrazol-5-yl)-8-(3-morpholinopropoxy)-9H-pyrimido[4,5-b]indole-6-carboxamide], the EC50 by setting is: (THP-1, Table 4A) not above 100 nM; (THP-1, Table 4B) less than 200 nM; (THP-1, Table 4C) not above 50 nM.

In the case of `CCn1nc(C)cc1C(=O)Nc1nc2cc(C(N)=O)cc(C)c2n1C/C=C/Cn1c2nc(-c3cc(C)nn3CC)ncc2c2cc(C(N)=O)cc(OCCCOC)c21` [Example S12, (E)-9-(4-(5-carbamoyl-2-(1-ethyl-3-methyl-1H-pyrazole-5-carboxamido)-7-methyl-1H-benzo[d]imidazol-1-yl)but-2-enyl)-2-(1-ethyl-3-methyl-1H-pyrazol-5-yl)-8-(3-methoxypropoxy)-9H-pyrimido[4,5-b]indole-6-carboxamide], the EC50 by setting is: (THP-1, Table 4A) not above 100 nM; (THP-1, Table 4B) less than 200 nM; (THP-1, Table 4C) not above 50 nM.

As to `CCn1nc(C)cc1C(=O)Nc1nc2cc(C(N)=O)cc(C)c2n1C/C=C/Cn1c2nc(-c3cc(C)nn3CC)ncc2c2cc(C(N)=O)cc(OCCCO)c21` [Example S13, (E)-9-(4-(5-carbamoyl-2-(1-ethyl-3-methyl-1H-pyrazole-5-carboxamido)-7-methyl-1H-benzo[d]imidazol-1-yl)but-2-enyl)-2-(1-ethyl-3-methyl-1H-pyrazol-5-yl)-8-(3-hydroxypropoxy)-9H-pyrimido[4,5-b]indole-6-carboxamide], the EC50 reads like this: (THP-1, Table 4A) not above 100 nM; (THP-1, Table 4B) less than 200 nM; (THP-1, Table 4C) not above 50 nM.

For `CCn1nc(C)cc1C(=O)Nc1nc2cc(C(N)=O)cc(C)c2n1C/C=C/Cn1c2nc(-c3cc(C)nn3CC)ccc2c2cc(C(N)=O)cc(OC)c21` [Example S14, (E)-9-(4-(5-carbamoyl-2-(1-ethyl-3-methyl-1H-pyrazole-5-carboxamido)-7-methyl-1H-benzo[d]imidazol-1-yl)but-2-enyl)-2-(1-ethyl-3-methyl-1H-pyrazol-5-yl)-8-methoxy-9H-pyrido[2,3-b]indole-6-carboxamide], the EC50 (THP-1, Table 4A) was not above 100 nM; the EC50 (THP-1, Table 4B) is less than 200 nM; the EC50 (THP-1, Table 4C) is not above 50 nM.

Consider `CCn1nc(C)cc1C(=O)Nc1nc2cc(C(N)=O)cc(OCCCOC(=O)c3cc(C)nn3CC)c2n1C/C=C/Cn1c2nc(-c3cc(C)nn3CC)ncc2c2cc(C(N)=O)cc(OC)c21` [Example S15, (E)-3-((5-carbamoyl-1-(4-(6-carbamoyl-2-(1-ethyl-3-methyl-1H-pyrazol-5-yl)-8-methoxy-9H-pyrimido[4,5-b]indol-9-yl)but-2-en-1-yl)-2-(1-ethyl-3-methyl-1H-pyrazole-5-carboxamido)-1H-benzo[d]imidazol-7-yl)oxy)propyl 1-ethyl-3-methyl-1H-pyrazole-5-carboxylate], for which the EC50 (THP-1, Table 4A) was not above 100 nM; the EC50 (THP-1, Table 4B) was less than 200 nM; the EC50 (THP-1, Table 4C) was not above 50 nM.

In the case of `CCn1nc(C)cc1C(=O)Nc1nc2cc(C(N)=O)cc(OCCCO)c2n1C/C=C/Cn1c2nc(-c3cc(C)nn3CC)ncc2c2cc(C(N)=O)cc(OC)c21` [Example S16, (E)-9-(4-(5-carbamoyl-2-(1-ethyl-3-methyl-1H-pyrazole-5-carboxamido)-7-(3-hydroxypropoxy)-1H-benzo[d]imidazol-1-yl)but-2-en-1-yl)-2-(1-ethyl-3-methyl-1H-pyrazol-5-yl)-8-methoxy-9H-pyrimido[4,5-b]indole-6-carboxamide], the EC50 is not above 100 nM (THP-1, Table 4A); less than 200 nM (THP-1, Table 4B); not above 50 nM (THP-1, Table 4C).

The values are drawn from US11596692B1 (Incyte Corporation, priority 2018, dated 2023).
